How the values were obtained:
[1] = when combined with letrozole/abemaciclib
[2] = cited from earlier work

**Q.** For `CN(C)C(=N)N=C(N)N` [metformin], which “increase in metformin exposure” value [1] is on record?
**A.** more than 3 fold

**Q.** What about the “recommended maximum concentration for safe clinical use” value [2] of the same compound?
**A.** 2500 µg/L
